Test results: ChEMBL document CHEMBL5113481, “Design, synthesis and biological evaluation of quinoline-2-carbonitrile-based hydroxamic acids as dual tubulin polymerization and histone deacetylases inhibitors” (Eur J Med Chem, 2022)
Activity calls are given as the source filed them. The rule behind the calls is not given here.

Assays:
[1] = Antitumor activity against mouse MCA-205 cells allografted in female C57BL/6 mouse assessed as increase in overall survival at 0.25 to 0.5 mg/kg, IT(Intratumoral); assay type: functional; details: dose lower […], dose upper 0.5 mg/kg
Tubulin (Homo sapiens) = Tubulin (Homo sapiens) (UniProt P68371+Q9H4B7+P0DPH7+P68366+Q13509+Q71U36+P04350+Q3ZCM7+P07437+P68363+Q9BQE3+Q6PEY2+Q13885+Q9BVA1+Q9BUF5); assay: Inhibition of tubulin polymerization in human HeLa cells assessed as microtubule network polymerization at 250 nM after 30 mins by immunofluorescence analysis; assay type: cell-based
MIA PaCa-2 = assay: Antiproliferative activity against human MIA PaCa-2 cells after 72 hrs by CellTiter Glo assay; assay type: functional, cell-based; details: MIA PaCa-2, 72 h
SK-OV-3 = assay: Antiproliferative activity against human SK-OV-3 cells after 72 hrs by CellTiter Glo assay; assay type: functional, cell-based; details: SK-OV-3, 72 h
HT-29 [2] = assay: Induction of mitochondrial dysfunction in human HT-29 cells at 2 nM measured after 48 hrs by JC-1 staining based flow cytometry; assay type: functional, cell-based
[3] = target: T1, Protein deacetylase HDAC6 (Homo sapiens, UniProt Q9UBN7); assay: Inhibition of HDAC6 (unknown origin) measured by fluorometry assay
T1 sequence (Q9UBN7 whole entry): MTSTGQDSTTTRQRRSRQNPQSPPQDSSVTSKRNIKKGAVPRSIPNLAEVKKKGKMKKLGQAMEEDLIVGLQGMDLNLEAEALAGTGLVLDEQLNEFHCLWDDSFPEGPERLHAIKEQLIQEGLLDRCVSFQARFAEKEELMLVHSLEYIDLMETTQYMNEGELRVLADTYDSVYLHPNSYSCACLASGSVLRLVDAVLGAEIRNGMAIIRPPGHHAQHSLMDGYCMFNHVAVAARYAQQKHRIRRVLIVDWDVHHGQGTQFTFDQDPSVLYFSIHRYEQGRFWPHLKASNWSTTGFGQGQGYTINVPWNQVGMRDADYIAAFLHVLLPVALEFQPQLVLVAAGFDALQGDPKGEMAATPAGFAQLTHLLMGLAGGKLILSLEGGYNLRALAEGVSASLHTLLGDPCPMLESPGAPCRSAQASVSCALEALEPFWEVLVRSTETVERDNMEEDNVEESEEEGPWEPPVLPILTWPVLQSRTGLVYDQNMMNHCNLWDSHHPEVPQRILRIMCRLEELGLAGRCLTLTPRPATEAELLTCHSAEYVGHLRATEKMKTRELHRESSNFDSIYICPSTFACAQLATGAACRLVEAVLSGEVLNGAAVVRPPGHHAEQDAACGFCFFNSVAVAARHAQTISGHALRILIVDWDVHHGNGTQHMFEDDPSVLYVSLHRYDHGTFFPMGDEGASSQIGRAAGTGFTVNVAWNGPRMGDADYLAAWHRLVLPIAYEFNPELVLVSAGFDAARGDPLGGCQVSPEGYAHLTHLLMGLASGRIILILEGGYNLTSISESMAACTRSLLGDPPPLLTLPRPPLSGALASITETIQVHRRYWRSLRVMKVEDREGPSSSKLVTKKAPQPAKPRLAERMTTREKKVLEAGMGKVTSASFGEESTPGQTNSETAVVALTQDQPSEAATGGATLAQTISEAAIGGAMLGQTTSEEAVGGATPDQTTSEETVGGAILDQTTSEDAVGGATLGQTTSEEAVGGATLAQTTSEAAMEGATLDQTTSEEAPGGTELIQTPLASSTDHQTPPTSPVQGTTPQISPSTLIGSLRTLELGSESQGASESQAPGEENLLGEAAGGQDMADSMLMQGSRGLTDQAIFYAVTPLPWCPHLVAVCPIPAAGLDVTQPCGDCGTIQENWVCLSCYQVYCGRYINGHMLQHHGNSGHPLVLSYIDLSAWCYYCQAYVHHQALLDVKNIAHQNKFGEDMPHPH

[4] = Toxicity in C57BL/6 mouse allografted with mouse MCA-205 cells assessed as effect on body weight at 0.1 to 0.5 mg/kg, IT(Intratumoral); assay type: organism-based; details: in vivo, other, dose 0.1-0.5 mg/kg
[5] = Metabolic stability in rat liver microsomes assessed as half-life measured upto 6 hrs in presence of NADPH generating system by HPLC-MS/MS analysis; assay type: ADME, Microsome
HT-29 [6] = assay: Induction of DNA damage in human HT-29 cells at 0.5 to 10 nM assessed as increase in gamma-H2AX level and measured after 24 hrs by Western blot analysis; assay type: functional, cell-based; details: dose 0.5-10 nM
HT-29 [7] = assay: Cell cycle arrest in human HT-29 cells assessed as accumulation of cells in G2/M phase at 0.1 to 5 nM measured after 24 hrs by PI staining based flow cytometry method; assay type: functional; details: dose 0.1-5 nM, DDE = dose-dependent effect
MCA-205 = assay: Antitumor activity against mouse MCA-205 cells allografted in female C57BL/6 mouse assessed as complete tumor regression at 0.5 mg/kg, IT(Intratumoral); assay type: functional, organism-based
Tubulin = assay: Inhibition of tubulin polymerization in human HeLa cells assessed as microtubule network polymerization after 30 mins by immunofluorescence analysis; assay type: cell-based
Histone deacetylase 11 = target: T2, Histone deacetylase 11 (Homo sapiens, UniProt Q96DB2); assay: Inhibition of HDAC11 (unknown origin) measured by fluorometry assay
T2 sequence (Q96DB2 whole entry): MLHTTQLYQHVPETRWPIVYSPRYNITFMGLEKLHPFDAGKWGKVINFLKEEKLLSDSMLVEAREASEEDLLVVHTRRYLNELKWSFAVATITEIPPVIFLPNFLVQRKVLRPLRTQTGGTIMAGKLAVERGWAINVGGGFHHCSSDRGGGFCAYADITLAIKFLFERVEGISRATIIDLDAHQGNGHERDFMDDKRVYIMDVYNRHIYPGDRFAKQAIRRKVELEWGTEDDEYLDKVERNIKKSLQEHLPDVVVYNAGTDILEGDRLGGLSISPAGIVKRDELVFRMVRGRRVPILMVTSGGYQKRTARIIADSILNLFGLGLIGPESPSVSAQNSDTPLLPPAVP

MDA-MB-231 = assay: Antiproliferative activity against human MDA-MB-231 cells after 72 hrs by CellTiter Glo assay; assay type: functional, cell-based; details: MDA-MB-231, 72 h
A549 = assay: Antiproliferative activity against human A549 cells after 72 hrs by CellTiter Glo assay; assay type: functional, cell-based; details: A549, 72 h
[8] = Antitumor activity against mouse MCA-205 cells allografted in female C57BL/6 mouse assessed as tumor regression at […], IT(Intratumoral); assay type: functional
HCT-116 = assay: Antiproliferative activity against human HCT-116 cells after 72 hrs by CellTiter Glo assay; assay type: functional, cell-based; details: Homo sapiens, HCT-116; time 72 hrs
K562 = assay: Antiproliferative activity against human K562 cells after 72 hrs by CellTiter Glo assay; assay type: functional, cell-based; details: K562, 72 h
HT-29 [9] = assay: Antiproliferative activity against human HT-29 cells after 72 hrs by CellTiter Glo assay; assay type: functional, cell-based; details: HT-29, 72 h

## COc1ccc(N(C)c2cc(C#N)nc3ccccc23)cc1/C=C/C(=O)NO
[1]
  Activity: 60%
Tubulin (Homo sapiens)
  inhibition: Active
MIA PaCa-2
  IC50: 0.94 nM
SK-OV-3
  IC50: 0.6 nM
HT-29 [2]
  Activity: Active
[3]
  IC50: 1000 nM
[4]
  Activity: Non-Toxic
[5]
  half-life: 6.6 h
HT-29 [6]
  Activity: Active
HT-29 [7]
  Activity: Dde
MCA-205
  Activity: Active
Tubulin
  IC50: 20 nM
Histone deacetylase 11
  IC50: 1900 nM
MDA-MB-231
  IC50: 0.7 nM
A549
  IC50: 0.84 nM
[8]
  Activity: 40%
HCT-116
  GI50: 0.5 nM
K562
  IC50: 0.35 nM
HT-29 [9]
  IC50: 0.62 nM
